In brackets after ≈: the same amount, converted by molar mass. Activity calls are given as the source filed them. The rule behind the calls is not given here.
Columns and labels:
[1] = test system: dengue virus type 2; assay: Antiviral activity against dengue virus 2 infected in BHK21 cells incubated for 48 hrs by CFI assay; assay type: functional, organism-based; conditions: BHK-21, 48 h
[2] = Cytotoxicity against human HepG2 cells incubated for 96 hrs by CCK8 assay; assay type: cell-based
[3] = Tmax in Wistar rat at 25 mg/kg, po after 0.17 to 24 hrs by LC-MS/MS method; assay type: ADME, organism-based; set-up: dose 25 mg/kg, route oral; conditions: in vivo
[4] = test system: Rattus norvegicus; assay: Volume of distribution at steady state in Wistar rat at 5 mg/kg, iv after 0.17 to 24 hrs by LC-MS/MS method; conditions: in vivo
[5] = Absolute oral bioavailability in Wistar rat at 25 mg/kg after 0.17 to 24 hrs by LC-MS/MS method; assay type: ADME, organism-based; conditions: in vivo
[6] = Cmax in Wistar rat at 25 mg/kg, po after 0.17 to 24 hrs by LC-MS/MS method; assay type: ADME, organism-based; set-up: dose 25 mg/kg, route oral; conditions: in vivo
[7] = test system: dengue virus type 2; assay: Antiviral activity against dengue virus 2 TSV01 in AG129 mouse model of dengue viremia assessed as log reduction in virus plaques at 100 mg/kg, po QD for 3 days relative to untreated control
[8] = Solubility in pH 6.8 buffer
[9] = test system: dengue virus type 2; assay: Antiviral activity against dengue virus 2 TSV01 in AG129 mouse model of dengue viremia assessed as log reduction in virus plaques at 50 mg/kg, po BID for 3 days relative to untreated control; assay type: functional
[10] = Terminal half-life in Wistar rat at 5 mg/kg, iv after 0.17 to 24 hrs by LC-MS/MS method; conditions: in vivo, read-out: beta t1/2 (converted)
[11] = Lipophilicity, log P of the compound; assay type: physicochemical; conditions: octanol/water
[12] = test system: dengue virus type 2; assay: Antiviral activity against dengue virus 2 infected in human A549 cells incubated for 48 hrs by viral titer reduction assay; assay type: functional, organism-based; conditions: A549, 48 h
[13] = Half life in mouse liver microsomes; assay type: ADME
[14] = Plasma clearance in Wistar rat at 5 mg/kg, iv after 0.17 to 24 hrs by LC-MS/MS method
[15] = AUC (0 to 24 hrs) in Wistar rat at 25 mg/kg, po after 0.17 to 24 hrs by LC-MS/MS method; assay type: ADME, organism-based; set-up: time < 24 hr, dose 25 mg/kg, route oral; conditions: plasma
[16] = Hepatic extraction ratio in mouse liver microsomes; assay type: ADME; conditions: read-out: ERH
[17] = test system: dengue virus type 2; assay: Antiviral activity against dengue virus 2 TSV01 in AG129 mouse model of dengue viremia assessed as log reduction in virus plaques at 25 mg/kg, po BID for 3 days relative to untreated control; assay type: functional, organism-based; set-up: dose 25 mg/kg

Row | EC50 [1] | Structure (SMILES) | CC50 at 96 h [2] | further results
1 | 6.2 µM | COc1ccc(Cn2ncc3c2NC(=O)CC32C(=O)Nc3ccc(Cl)cc32)cc1 (racemic) | > 10 µM | 
2 | 2.71 µM | O=C1C[C@@]2(C(=O)Nc3ccc(Cl)cc32)c2cnn(Cc3ccc(Cl)cc3)c2N1 |  | 
3 | 3.9 µM | O=C1CC2(C(=O)Nc3ccc(Cl)cc32)c2cnn(Cc3cccc(Cl)c3)c2N1 (racemic) | > 10 µM | 
4 | 3.9 µM | O=C1C[C@@]2(C(=O)Nc3ccc(Cl)cc32)c2cnn(Cc3ccc(C(F)(F)F)cc3)c2N1 | > 10 µM | 
5 | 0.025 µM | O=C1CC2(C(=O)Nc3ccc(Cl)cc32)c2cnn(Cc3ccc(C(F)(F)F)cc3)c2N1 (racemic) | > 10 µM | 
6 | 7.2 µM | O=C1CC2(C(=O)Nc3ccc(Cl)cc32)c2cnn(CCc3ccc(Cl)cc3)c2N1 (racemic) | > 10 µM | 
7 | 0.021 µM | O=C1C[C@]2(C(=O)Nc3ccc(Cl)cc32)c2cnn(Cc3ccc(C(F)(F)F)cc3)c2N1 | > 10 µM | solubility [8]: 27 µM (≈ 12.1 µg/mL); logP [11]: 4.1; half-life [13]: 62 min; hepatic extraction ratio [16]: 0.49
8 | 0.05 µM | O=C1CC2(C(=O)Nc3ccc(Br)cc32)c2cnn(Cc3ccc(Cl)cc3)c2N1 (racemic) | > 10 µM | 
9 | 0.012 µM | O=C1C[C@]2(C(=O)Nc3ccc(Cl)cc32)c2cnn(Cc3ccc(Cl)cc3)c2N1 | > 10 µM | Tmax [3]: 120 min; Vdss [4]: 4.3 L/kg; bioavailability [5]: 33%; Cmax [6]: 780 ng/mL; solubility [8]: 11 µM (≈ 4.55 µg/mL); half-life [10]: 228 min; logP [11]: 4.9; EC50 [12]: 0.012 µM; half-life [13]: 31 min; clearance [14]: 15.1 mL/min/kg; AUC(0-t) at 24 h [15]: 9500 ng·h/mL; hepatic extraction ratio [16]: 0.66
10 | 32.8 µM | O=C1CC2(C(=O)Nc3ccc(Cl)cc32)c2cnn(Cc3ccc(Cl)nc3)c2N1 (racemic) | > 10 µM | 
11 | 2.3 µM | COc1ccc2c(c1)C1(CC(=O)Nc3c1cnn3Cc1ccc(Cl)cc1)C(=O)N2 (racemic) | > 10 µM | 
12 | 0.051 µM | O=C1CC2(C(=O)Nc3ccc(Cl)cc32)c2cnn(Cc3ccc(Cl)cc3)c2N1 (racemic) |  | 
13 | 1.3 µM | O=C1CC2(C(=O)Nc3ccc(C(F)(F)F)cc32)c2cnn(Cc3ccc(Cl)cc3)c2N1 (racemic) | > 10 µM | 

The next lines start with the molecule.

Row | Structure (SMILES) | EC50 [1] | CC50 at 96 h [2] | further results
14 | O=C1CC2(C(=O)Nc3ccc(Cl)cc32)c2cnn(Cc3ncc(Cl)cn3)c2N1 (racemic) | 85.3 µM | > 10 µM | 
15 | O=C1CC2(C(=O)Nc3ccc(Cl)cc32)c2cnn(Cc3ccc(Cl)cn3)c2N1 (racemic) | 0.67 µM | 33 µM | 
16 | O=C1C[C@]2(C(=O)Nc3ccc(Cl)cc32)c2cnn(Cc3ccc(Cl)cn3)c2N1 | 0.23 µM | 33 µM | Tmax [3]: 10.2 min; Vdss [4]: 3 L/kg; bioavailability [5]: 63%; Cmax [6]: 3860 ng/mL; FC [7]: 1.9; solubility [8]: 504 µM (≈ 209 µg/mL); FC [9]: 1.9; half-life [10]: 78 min; logP [11]: 2.8; EC50 [12]: 0.042 µM; half-life [13]: 24 min; clearance [14]: 18.8 mL/min/kg; AUC(0-t) at 24 h [15]: 13800 ng·h/mL; hepatic extraction ratio [16]: 0.71
17 | CN1C(=O)[C@]2(CC(=O)Nc3c2cnn3Cc2ccc(Cl)cc2)c2cc(Cl)ccc21 | 0.006 µM | > 10 µM | solubility [8]: 161 µM (≈ 68.8 µg/mL); logP [11]: 4.6; half-life [13]: 5.8 min; hepatic extraction ratio [16]: 0.91
18 | CN1C(=O)C2(CC(=O)Nc3c2cnn3Cc2ccc(Cl)cc2)c2cc(Cl)ccc21 (racemic) | 0.011 µM | > 10 µM | 
19 | O=C1CC2(C(=O)Nc3ccc(Cl)cc32)c2cnn(-c3ccc(Cl)cc3)c2N1 (racemic) | 32.5 µM | > 10 µM | 
20 | C#C[C@@]1(O)[C@H](O)[C@@H](CO)O[C@H]1n1ccc2c(N)ncnc21 |  |  | inhibition [17]: Active
21 | CN1C(=O)[C@@]2(CC(=O)Nc3c2cnn3Cc2ccc(Cl)cc2)c2cc(Cl)ccc21 | 0.772 µM | > 10 µM | 
22 | O=C1CC2(C(=O)Nc3ccc(Cl)cc32)c2cnn(CC3CCC(F)(F)CC3)c2N1 (racemic) | 22.5 µM | > 10 µM | 
23 | O=C1Nc2ccc(Cl)cc2C12CCNc1c2cnn1Cc1ccc(Cl)cc1 (racemic) | 4 µM | 8.1 µM | 
24 | O=C1C[C@@]2(C(=O)Nc3ccc(Cl)cc32)c2cnn(Cc3ccc(Cl)cn3)c2N1 | 18.4 µM | > 10 µM | 
25 | O=C1CC2(CNc3ccc(Cl)cc32)c2cnn(Cc3ccc(Cl)cc3)c2N1 (racemic) | 1.1 µM | > 10 µM | 
26 | O=C1CC2(C(=O)Nc3ccc(Cl)cc32)c2cnn(Cc3ccccc3Cl)c2N1 (racemic) | 1.7 µM | > 10 µM | 
27 | CN1C(=O)CC2(C(=O)Nc3ccc(Cl)cc32)c2cnn(Cc3ccc(Cl)cc3)c21 (racemic) | 0.42 µM | > 10 µM | 

Reference: ChEMBL document CHEMBL3425504, “Lead optimization of spiropyrazolopyridones: a new and potent class of dengue virus inhibitors” (ACS Med Chem Lett, 2015)
